Results on two molecules are retold here after ChEMBL document CHEMBL3526108, “Contribution of carboxylesterase in hamster to the intestinal first-pass loss and low bioavailability of ethyl piperate, an effective lipid-lowering drug candidate” (Drug Metab Dispos, 2011).

The nature of data set [1]: Stability of the compound at simulated gastrointestinal pH conditions assessed as degradation. It counts as ADME.
Data set [2] can be described thus: Tmax in hamster at 30 mg/kg, po. The data set is classed as ADME, organism-based. Further details: dose 30 mg/kg, route oral. As to conditions: cricetinae, in vivo.
The subject of data set [3] is Hamster. In words: Volume of distribution in hamster at 10 mg/kg, iv. The data set is classed as ADME, organism-based. Further details: dose 10 mg/kg, route intravenous. The settings on record: cricetinae, in vivo.
Data set [4] is described as follows: Permeability from basolateral to apical side of human Caco2 cells at 5 uM after 1 hr in presence of BNPP. As to conditions: caco-2, 1 h. The data set is classed as ADME, cell-based.
The nature of data set [5]: Oral bioavailability in hamster at 30 mg/kg. It counts as ADME, organism-based. As to conditions: cricetinae, in vivo.
The test system of data set [6] is Hamster. The data set is described as follows: Drug metabolism in hamster assessed as appearance rate of parent compound in portal vein at 400 uM administered as intestinal single-pass perfusion up to 1 hr by LC-MS/MS analysis. The data set is classed as ADME, organism-based. As to conditions: cricetinae, in vivo, other.
A short description of data set [7]: Drug metabolism in hamster kidney microsomes assessed as carboxylesterase-mediated compound hydrolysis at 50 uM after 30 mins. As to conditions: cricetinae, 0.5 h. It counts as ADME.
Data set [8] is described as follows: Drug metabolism in hamster liver microsomes assessed as carboxylesterase-mediated compound hydrolysis at 50 uM after 30 mins in presence of BNPP in presence of BNPP. The data set is classed as ADME. The settings on record: cricetinae, 0.5 h.
A short description of data set [9]: Drug recovery in human Caco2 cells at 5 uM after 1 hr in presence of BNPP. It counts as ADME, cell-based. The settings on record: Caco-2, with BNPP, read-out: Drug recovery.
For data set [10], the system named is Hamster. The data set is described as follows: Drug metabolism in hamster assessed as production of piperinic acid at 400 uM administered as intestinal single-pass perfusion up to 1 hr by LC-MS/MS analysis. As to conditions: cricetinae, in vivo, other. It counts as ADME, organism-based.
A short description of data set [11]: AUC (0 to t) in hamster at 30 mg/kg, po. It counts as ADME, organism-based. Further details: dose 30 mg/kg, route oral. As to conditions: cricetinae, plasma.
Data set [12] relates to Hamster. The data set is described as follows: Absorption clearance in hamster at 400 uM administered as intestinal single-pass perfusion up to 1 hr by LC-MS/MS analysis. It counts as ADME, organism-based. The settings on record: cricetinae, in vivo, other.
Data set [13] has as its system Hamster. The data set is described as follows: Drug metabolism in hamster intestinal S9 fraction assessed as production of piperinic acid at 400 uM administered as intestinal single-pass perfusion up to 1 hr by LC-MS/MS analysis in presence of BNPP. As to conditions: cricetinae, s9, 1 h. It counts as ADME, Intestine.
Data set [14] in a line: Drug metabolism in hamster intestinal microsomes assessed as carboxylesterase-mediated compound hydrolysis at 50 uM after 30 mins. The data set is classed as ADME, Intestine. As to conditions: cricetinae, 0.5 h.
Data set [15] is described as follows: MRT (0 to t) in hamster at 10 mg/kg, iv. The data set is classed as ADME, organism-based. Further details: dose 10 mg/kg, route intravenous. As to conditions: cricetinae, in vivo.
Data set [16] deals with Hamster. In words: Drug metabolism in hamster assessed as disappearance rate of parent compound in intestine at 400 uM administered as intestinal single-pass perfusion up to 1 hr by LC-MS/MS analysis in presence of BNPP. The data set is classed as ADME, organism-based. The settings on record: cricetinae, in vivo, other.
For data set [17], the system named is Hamster. The data set is described as follows: Degradation clearance in hamster at 400 uM administered as intestinal single-pass perfusion up to 1 hr by LC-MS/MS analysis in presence of BNPP. The settings on record: cricetinae, in vivo, other. The data set is classed as ADME, organism-based.
Data set [18] can be described thus: MRT (0 to t) in hamster at 30 mg/kg, po. It counts as ADME, organism-based. As to conditions: cricetinae, in vivo. Further details: dose 30 mg/kg, route oral.
Data set [19] is described as follows: Apparent permeability coefficient of parent compound in hamster at 400 uM administered as intestinal single-pass perfusion up to 1 hr by LC-MS/MS analysis. It counts as ADME, organism-based. The settings on record: cricetinae.
The nature of data set [20]: Drug metabolism in hamster liver microsomes assessed as carboxylesterase-mediated compound hydrolysis at 50 uM after 30 mins. The data set is classed as ADME. As to conditions: cricetinae, 0.5 h. (In general: Liver microsomes are vesicles of endoplasmic reticulum, rich in cytochrome P450 enzymes.)
Data set [21] is described as follows: Drug metabolism in hamster kidney microsomes assessed as carboxylesterase-mediated compound hydrolysis at 50 uM after 30 mins in presence of BNPP. The data set is classed as ADME. As to conditions: cricetinae, 0.5 h.
A short description of data set [22]: Stability of the compound in hamster intestinal washings assessed as compound remaining at 100 uM after 1 hr by LC-MS/MS analysis. The data set is classed as ADME. The settings on record: cricetinae, read-out: Stability.
Data set [23] relates to Hamster. In words: Degradation clearance in hamster at 400 uM administered as intestinal single-pass perfusion up to 1 hr by LC-MS/MS analysis. It counts as ADME, organism-based. The settings on record: cricetinae, in vivo, other.
Data set [24] in a line: Elimination half life in hamster at 10 mg/kg, iv. The settings on record: cricetinae, in vivo, read-out: beta t1/2 (converted). The data set is classed as ADME, organism-based. Further details: dose 10 mg/kg, route intravenous.
The nature of data set [25]: Permeability from apical to basolateral side of human Caco2 cells at 5 uM after 1 hr in presence of BNPP. The data set is classed as ADME, cell-based. As to conditions: caco-2, 1 h. A general note: Caco-2 monolayers are a common model of the intestinal barrier.
Data set [26] can be described thus: Drug metabolism in hamster liver microsomes assessed as carboxylesterase-mediated compound hydrolysis at 50 uM after 30 mins in presence of BNPP. It counts as ADME. As to conditions: cricetinae, 0.5 h.
The nature of data set [27]: Apparent permeability coefficient of parent compound in hamster at 400 uM administered as intestinal single-pass perfusion up to 1 hr by LC-MS/MS analysis in presence of BNPP. It counts as ADME, organism-based. The settings on record: cricetinae, with BNPP.
The test system of data set [28] is Hamster. In words: Absorption clearance in hamster at 400 uM administered as intestinal single-pass perfusion up to 1 hr by LC-MS/MS analysis in presence of BNPP. It counts as ADME, organism-based. As to conditions: cricetinae, in vivo, other.
The nature of data set [29]: AUC (0 to t) in hamster at 10 mg/kg, iv. It counts as ADME, organism-based. Further details: dose 10 mg/kg, route intravenous. The settings on record: cricetinae, plasma.
A short description of data set [30]: Drug metabolism in hamster intestinal S9 fraction assessed as production of piperinic acid by Michaelis-Menten equation analysis. The data set is classed as ADME, Intestine. As to conditions: cricetinae.
The subject of data set [31] is Hamster. In words: Drug metabolism in hamster assessed as disappearance rate of parent compound in intestine at 400 uM administered as intestinal single-pass perfusion up to 1 hr by LC-MS/MS analysis. It counts as ADME, organism-based. The settings on record: cricetinae, in vivo, other.
Data set [32] has as its system Hamster. The data set is described as follows: Drug metabolism in hamster assessed as appearance rate of parent compound in portal vein at 400 uM administered as intestinal single-pass perfusion up to 1 hr by LC-MS/MS analysis in presence of BNPP. It counts as ADME, organism-based. As to conditions: cricetinae, in vivo, other.
Data set [33] is described as follows: Cmax in hamster at 30 mg/kg, po. The data set is classed as ADME, organism-based. Further details: dose 30 mg/kg, route oral. As to conditions: cricetinae, in vivo.
Data set [34] relates to Hamster. In words: Drug metabolism in hamster assessed as appearance rate of compound in portal vein treated with 400 uM of ethyl piperate administered as intestinal single-pass perfusion up to 1 hr by LC-MS/MS analysis. It counts as ADME, organism-based. The settings on record: cricetinae, in vivo, other.
In data set [35] the test system is Hamster. The data set is described as follows: Drug metabolism in hamster assessed as appearance rate of compound in intestine treated with 400 uM of ethyl piperate administered as intestinal single-pass perfusion up to 1 hr by LC-MS/MS analysis in presence of BNPP. The settings on record: cricetinae, in vivo, other. It counts as ADME, organism-based.
The subject of data set [36] is Hamster. The data set is described as follows: Drug metabolism in hamster assessed as appearance rate of compound in intestine treated with 400 uM of ethyl piperate administered as intestinal single-pass perfusion up to 1 hr by LC-MS/MS analysis. It counts as ADME, organism-based. The settings on record: cricetinae, in vivo, other.
Data set [37] concerns Hamster. In words: Drug metabolism in hamster assessed as appearance rate of compound in portal vein treated with 400 uM of ethyl piperate administered as intestinal single-pass perfusion up to 1 hr by LC-MS/MS analysis in presence of BNPP. It counts as ADME, organism-based. As to conditions: cricetinae, in vivo, other.
Data set [38] can be described thus: Apparent permeability coefficient of compound in hamster treated with 400 uM of ethyl piperate administered as intestinal single-pass perfusion up to 1 hr by LC-MS/MS analysis in presence of BNPP. As to conditions: cricetinae. It counts as ADME, organism-based.
Data set [39] can be described thus: Apparent permeability coefficient of compound in hamster treated with 400 uM of ethyl piperate administered as intestinal single-pass perfusion up to 1 hr by LC-MS/MS analysis. The data set is classed as ADME, organism-based. The settings on record: cricetinae.

On to `CCOC(=O)/C=C/C=C/c1ccc2c(c1)OCO2`, for which the Stability entry in data set [1] is given as “Stable”. Moreover, in [2], the Tmax worked out at 9 min. Further, in the data set with Hamster [3], the Vz/F is 3.76 L/kg. The permeability result in [4] and in data set [25] was “impermeable” in each case. In addition, the bioavailability in data set [5] is 0.47%. Besides, the Drug metabolism in the data set on Hamster [6] is listed as 10.8 nmol/min; in data set [7], “metabolite_detected”; in [8] it was “metabolite_not_detected”; with Hamster [10] it was 0.196 nmol/min/mg; in the data set on Hamster [13] it was 0.06 nmol/min/mg; in data set [14], “metabolite_detected”. For the same molecule, the Drug metabolism in the data set on Hamster [16] is 62.7 nmol/min; in data set [20], “metabolite_detected”; in data set [21], “metabolite_not_detected”; in data set [26], “metabolite_not_detected”; with Hamster [31] it was 76.5 nmol/min; in the data set with Hamster [32] it was 9.8 nmol/min. Further, the recovery at 1 h, 5 µM in [9] was more than 90%. Further, the AUC(0-t) in data set [11] was 0.0345 µg·h/mL; in [29], 2.45 µg·h/mL. Besides, the “CL(app)” value in the data set on Hamster [12] is 66.7 µL/min; in the data set on Hamster [28] it was 55 µL/min. Moreover, the figures for the MRT last in [15] and in data set [18] were 25.8 min and 24 min, respectively. In addition, the CL in the data set with Hamster [17] is 121.6 µL/min; with Hamster [23], 339.9 µL/min. Also, the Papp at 1 h, 400 µM is 770 nm/s in [19] and 598 nm/s in data set [27]. Moreover, the remaining at 1 h, 100 µM in data set [22] is more than 80%. In data set [24], the half-life was 37.8 min. In data set [30], the Km stood at 7.56 µM. Further, in data set [30], the Vmax came to 0.16 nmol/min/mg. In [33], this molecule had a Cmax of 0.0704 µg/mL.

Regarding `O=C(O)/C=C/C=C/c1ccc2c(c1)OCO2` [PIPERIC ACID], the Drug metabolism came to 52.1 nmol/min in the data set with Hamster [34], 2 nmol/min with Hamster [35], 2.3 nmol/min in the data set with Hamster [36] and 21.7 nmol/min with Hamster [37]. In addition, the Papp at 1 h in data set [38] is 1270 nm/s; in data set [39], 3730 nm/s.

What is called Tmax is the time at which the peak concentration occurs. As usually defined, the bioavailability is the share of a dose that reaches the circulation, judged against a reference dose that is usually intravenous. Broadly, the AUC(0-t) is the area under the concentration-time curve up to a stated or last time point. Read a high AUC(0-t) as high exposure. As usually defined, the MRT last is a mean duration of stay, worked out from the concentration-time curve. The term Papp denotes the rate of passage across a membrane or cell layer, normalised by area and donor concentration. What is called Km is the concentration of substrate that gives half-maximal velocity. As a reminder, the Vmax is the rate approached at saturating substrate. One may read the Cmax as the peak of the concentration-time curve.
